Measured values from PubChem BioAssay (NCI).
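Method: 48-hour compound exposure of cells in 96-well plates, five concentrations, linear interpolation of endpoints. GI50: concentration for 50% inhibition of growth. TGI denotes the concentration required for complete inhibition of growth.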

Assays:
Assay in all cases: NCI tumour cell line growth inhibition, 48 h
[1] = system: 786-0 renal
[2] = system: A498 renal
[3] = system: A549 NSCLC
[4] = system: ACHN renal
[5] = system: BT-549 breast
[6] = system: CAKI-1 renal
[7] = system: CCRF-CEM leukemia
[8] = system: COLO 205 colon
[9] = system: DU-145 prostate
[10] = system: EKVX NSCLC
[11] = system: HCC-2998 colon
[12] = system: HCT-116 colon
[13] = system: HCT-15 colon
[14] = system: HL-60(TB) leukemia
[15] = system: HOP-62 NSCLC
[16] = system: HOP-92 NSCLC
[17] = system: HS 578T breast
[18] = system: HT29 colon
[19] = system: IGROV1 ovarian
[20] = system: K-562 leukemia
[21] = system: KM12 colon
[22] = system: LOX IMVI melanoma
[23] = system: M14 melanoma
[24] = system: MALME-3M melanoma
[25] = system: MCF7 breast
[26] = system: MDA-MB-231 breast
[27] = system: MDA-MB-435
[28] = system: MOLT-4 leukemia
[29] = system: NCI-H226 lung
[30] = system: NCI-H460 lung
[31] = system: NCI-H522 lung
[32] = system: NCI/ADR-RES ovarian
[33] = system: OVCAR-3 ovarian
[34] = system: OVCAR-4 ovarian
[35] = system: OVCAR-5 ovarian
[36] = system: OVCAR-8 ovarian
[37] = system: PC-3 prostate
[38] = system: RPMI-8226 leukemia
[39] = system: RXF 393 renal
[40] = system: SF-268 CNS
[41] = system: SF-295 CNS
[42] = system: SF-539 CNS
[43] = system: SK-MEL-2 melanoma
[44] = system: SK-MEL-28 melanoma
[45] = system: SK-MEL-5 melanoma
[46] = system: SK-OV-3 ovarian
[47] = system: SN12C renal
[48] = system: SNB-19 CNS
[49] = system: SNB-75 CNS
[50] = system: SR leukemia
[51] = system: SW-620 colon
[52] = system: T-47D breast
[53] = system: TK-10 renal
[54] = system: U251 CNS
[55] = system: UACC-257 melanoma
[56] = system: UACC-62 melanoma
[57] = system: UO-31 renal

For `O=C(CSc1nc2ccccc2c(=O)n1-c1ccc(Cl)cc1)N/N=C/c1ccc(Oc2ccc(Cl)cc2)cc1`, the GI50 [1] was 2510 nM, the TGI [1] was 6.42 µM and the GI50 [2] was 1940 nM. It also gave a TGI [2] of 4.35 µM, a GI50 [3] of 3.25 µM and a TGI [3] of 14 µM. It also gave a GI50 [4] of 4.36 µM, a TGI [4] of 15.2 µM and a GI50 [5] of 3.28 µM. The TGI [5] was 12.2 µM, the GI50 [6] was 3.06 µM and the TGI [6] was 12 µM. It also gave a GI50 [7] of 3.09 µM, a TGI [7] of 48.5 µM and a GI50 [8] of 2790 nM. The TGI [8] was 8.74 µM, the GI50 [9] was 3.52 µM and the TGI [9] was 20.4 µM. It also gave a GI50 [10] of 3.1 µM, a TGI [10] of 13.9 µM and a GI50 [11] of 1920 nM. For the same compound, the TGI [11] was 3.81 µM, the GI50 [12] was 1550 nM and the TGI [12] was 3.74 µM. For the same compound, the GI50 [13] was 2410 nM, the TGI [13] was 7.49 µM and the GI50 [14] was 16 µM. The TGI [14] was 37 µM, the GI50 [15] was 1690 nM and the TGI [15] was 4.05 µM. For the same compound, the GI50 [16] was 2070 nM, the TGI [16] was 5.62 µM and the GI50 [17] was 2170 nM. The TGI [17] was 6.36 µM, the GI50 [18] was 2140 nM and the TGI [18] was 11.1 µM. It also gave a GI50 [19] of 1510 nM, a TGI [19] of 3.28 µM and a GI50 [20] of 4.15 µM. It also gave a TGI [20] of 20.2 µM, a GI50 [21] of 2040 nM and a TGI [21] of 5 µM. It also gave a GI50 [22] of 1290 nM, a TGI [22] of 2590 nM and a GI50 [23] of 1580 nM. The TGI [23] was 3.47 µM, the GI50 [24] was 1380 nM and the TGI [24] was 2770 nM. The GI50 [25] was 2010 nM, the TGI [25] was 5.5 µM and the GI50 [26] was 1790 nM. It also gave a TGI [26] of 3.9 µM, a GI50 [27] of 1930 nM and a TGI [27] of 4.56 µM. The GI50 [28] was 2290 nM, the TGI [28] was 9.23 µM and the GI50 [29] was 2460 nM. For the same compound, the TGI [29] was 6.59 µM, the GI50 [30] was 788 nM and the TGI [30] was 2600 nM. It also gave a GI50 [31] of 2340 nM, a TGI [31] of 8.31 µM and a GI50 [32] of 1640 nM. It also gave a TGI [32] of 3.56 µM, a GI50 [33] of 2750 nM and a TGI [33] of 9.55 µM. For the same compound, the GI50 [34] was 1890 nM, the TGI [34] was 4.57 µM and the GI50 [35] was 2270 nM. It also gave a TGI [35] of 6.44 µM, a GI50 [36] of 2410 nM and a TGI [36] of 6.56 µM. The GI50 [37] was 2580 nM, the TGI [37] was 9.32 µM and the GI50 [38] was 2980 nM. It also gave a TGI [38] of 15.8 µM, a GI50 [39] of 1700 nM and a TGI [39] of 3.14 µM. For the same compound, the GI50 [40] was 3.85 µM, the TGI [40] was 23.9 µM and the GI50 [41] was 3.61 µM. The TGI [41] was 13.3 µM, the GI50 [42] was 2540 nM and the TGI [42] was 6.32 µM. For the same compound, the GI50 [43] was 2860 nM, the TGI [43] was 8.93 µM and the GI50 [44] was 1510 nM. The TGI [44] was 3.01 µM, the GI50 [45] was 1750 nM and the TGI [45] was 3.51 µM. The GI50 [46] was 3.26 µM, the TGI [46] was 11.9 µM and the GI50 [47] was 1740 nM. The TGI [47] was 4.14 µM, the GI50 [48] was 3.36 µM and the TGI [48] was 12.7 µM. For the same compound, the GI50 [49] was 3.99 µM, the TGI [49] was 29.2 µM and the GI50 [50] was 1840 nM. It also gave a TGI [50] of 6.86 µM, a GI50 [51] of 1810 nM and a TGI [51] of 7.84 µM. The GI50 [52] was 2090 nM, the TGI [52] was 5.76 µM and the GI50 [53] was 5.97 µM. For the same compound, the TGI [53] was 40.2 µM, the GI50 [54] was 1650 nM and the TGI [54] was 3.69 µM. It also gave a GI50 [55] of 4.62 µM, a TGI [55] of 22.5 µM and a GI50 [56] of 1590 nM. It also gave a TGI [56] of 3.18 µM, a GI50 [57] of 7.47 µM and a TGI [57] of 21.1 µM.
